Results taken from PMC10408683, “Dual Blockade of EP2 and EP4 Signaling is Required for Optimal Immune Activation and Antitumor Activity Against Prostaglandin-Expressing Tumors” (Cancer Research Communications, 2023).

Experiments:
Type in all cases: cell-based
EP4 [1] = biological target: T1, EP4 (Homo sapiens, UniProt P35408); test: calcium flux antagonism of PGE2 in HEK293 cells stably expressing EP4 coupled through a promiscuous G protein
T1 construct: gene PTGER4

EP2 = biological target: T2, EP2 (Homo sapiens, UniProt P43116); test: calcium flux antagonism of PGE2 in HEK293 cells stably expressing EP2 coupled through a promiscuous G protein
T2 construct: gene PTGER2
T2 sequence (P43116 whole entry): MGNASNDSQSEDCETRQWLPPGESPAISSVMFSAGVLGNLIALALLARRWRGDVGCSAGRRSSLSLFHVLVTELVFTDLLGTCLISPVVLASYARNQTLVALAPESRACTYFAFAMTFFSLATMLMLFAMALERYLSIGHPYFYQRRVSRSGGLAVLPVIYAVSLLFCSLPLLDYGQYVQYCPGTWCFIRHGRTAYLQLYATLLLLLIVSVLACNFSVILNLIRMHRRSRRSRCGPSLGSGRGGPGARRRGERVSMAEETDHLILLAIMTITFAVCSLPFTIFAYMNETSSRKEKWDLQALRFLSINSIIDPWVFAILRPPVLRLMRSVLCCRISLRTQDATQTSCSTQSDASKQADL

EP4 [2] = biological target: T1, EP4; test: calcium flux assay in HEK293-based cells stably expressing human EP4

T1 sequence (P35408 whole entry): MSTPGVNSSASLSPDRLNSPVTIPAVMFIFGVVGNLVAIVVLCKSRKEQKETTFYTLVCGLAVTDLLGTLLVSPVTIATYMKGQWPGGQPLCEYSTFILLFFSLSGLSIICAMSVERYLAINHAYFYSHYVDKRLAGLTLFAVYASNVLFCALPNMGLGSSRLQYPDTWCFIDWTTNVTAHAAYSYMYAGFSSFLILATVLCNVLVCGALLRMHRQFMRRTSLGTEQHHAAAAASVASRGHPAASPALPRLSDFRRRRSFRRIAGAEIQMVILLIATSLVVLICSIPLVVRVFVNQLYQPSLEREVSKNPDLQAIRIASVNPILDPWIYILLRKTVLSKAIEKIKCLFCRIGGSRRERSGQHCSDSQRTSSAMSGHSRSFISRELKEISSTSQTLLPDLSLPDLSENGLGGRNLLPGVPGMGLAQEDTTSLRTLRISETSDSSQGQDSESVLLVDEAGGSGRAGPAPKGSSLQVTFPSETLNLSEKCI

TPST-1495 was tested, and the IC50 (EP4 [1]) was 3.24 nM and the IC50 (EP2) was 17.2 nM.

TPST-7131 showed an IC50 (EP4 [2]) of 0.4 nM.
